The values below come from patent US7361679B2, “2-phenyl-3-heteroarylpropionic acid derivative or salt thereof and medicine containing the same” (Kaken Pharmaceutical Co., Ltd., priority 2001, dated 2008).

One assay has as its target T1, VLA-4/VCAM-1 (Homo sapiens, UniProt P05556+P13612).
T1 construct: endogenous in cells; host or cells: HL-60 cells (VLA-4, endogenous); CHO cells transfected with a human VCAM-1 gene (the ligand VCAM-1)
The experiment in a line: VLA-4/VCAM-1 adhesion inhibition test (BCECF-labelled HL-60 cells adhering to VCAM-1 expressing CHO cells). It counts as cell-based. The note with it: adhesion of VLA-4 expressing HL-60 cells to CHO cells transfected with human VCAM-1 gene; read-out: 50% inhibition concentration. The method, then: Test Example 1 VLA-4/VCAM-1 Adhesion Inhibition Test
The above VCAM-1 expressing CHO cells were placed in a 96-well culture plate in amount of 7×10^3 cells per well and cultured in Ham's F-12 medium containing 10 wt % fetal calf serum (FCS) for 3 days until a confluent state was satisfied. The HL-60 cells were re-floated in Hanks' solution containing 0.4 wt % bovine serum albumin (BSA), and 5 μM of 2′,7′-bis(carboxyethyl)-5(6)-carboxyfluorescein penta acetoxy methyl ester (BCECF-AM) was added to label the cells. Solutions having various concentrations of each test substance and having an amount of 20 μl each were added to 180 μl each of suspensions of BCECF-labeled HL-60 cells re-floated at a rate of 4×10^6 cells/ml in the FCS-non-containing RPMI 1640 culture medium, and pre-treated at 37° C. for 15 minutes.
Then, the pre-treated HL-60 cells were stratified in the 96-well plate culturing the VCAM-1 expressing CHO cells at a rate of 2×10^5 cells per well, and allowed to adhere thereto at 37° C. for 5 minutes. Then, the plate was filled with 0.4 wt % BSA Hanks, covered with a plate sealer and turned upside down. Further, the cells were cultured for 45 minutes. After washing, 1 wt % NP-40-containing PBS was added to destroy the cells, and the thus-obtained supernatants were measured for fluorescence intensity with a cyto Fluor 2300 fluorescence measurement system (supplied by Millipore).
Further, as a blank, 1 wt % NP-40-containing PBS was measured for fluorescence intensity. Further, as standards, a fluorescence-labeled HL-60 floating liquid was added to 1 wt % NP-40-containing PBS at a rate of 2×10^5, 10^5, 2×10^4 and 10^4 cells/ml, the cells were destroyed, and the thus-obtained supernatants were measured for fluorescence intensity.
Each test substance was measured as described above, and on the basis of the calibration curve prepared from the measurements of the standard, cells in a control and cells adhering to the VCAM-1 expressive CHO cells due to the addition of the test substances were measured for numbers, and cell adhesion inhibition ratios (%) were calculated on the basis of the following equation.
Cell adhesion inhibition ratio (%)=100×[1−(number of adhered cells of groups to which the test substance was added/number of adhered cells of control groups)

The target in another assay is T2, LPAM-1/VCAM-1 (Homo sapiens, UniProt P13612+P26010).
T2 sequence (P13612 34-1032): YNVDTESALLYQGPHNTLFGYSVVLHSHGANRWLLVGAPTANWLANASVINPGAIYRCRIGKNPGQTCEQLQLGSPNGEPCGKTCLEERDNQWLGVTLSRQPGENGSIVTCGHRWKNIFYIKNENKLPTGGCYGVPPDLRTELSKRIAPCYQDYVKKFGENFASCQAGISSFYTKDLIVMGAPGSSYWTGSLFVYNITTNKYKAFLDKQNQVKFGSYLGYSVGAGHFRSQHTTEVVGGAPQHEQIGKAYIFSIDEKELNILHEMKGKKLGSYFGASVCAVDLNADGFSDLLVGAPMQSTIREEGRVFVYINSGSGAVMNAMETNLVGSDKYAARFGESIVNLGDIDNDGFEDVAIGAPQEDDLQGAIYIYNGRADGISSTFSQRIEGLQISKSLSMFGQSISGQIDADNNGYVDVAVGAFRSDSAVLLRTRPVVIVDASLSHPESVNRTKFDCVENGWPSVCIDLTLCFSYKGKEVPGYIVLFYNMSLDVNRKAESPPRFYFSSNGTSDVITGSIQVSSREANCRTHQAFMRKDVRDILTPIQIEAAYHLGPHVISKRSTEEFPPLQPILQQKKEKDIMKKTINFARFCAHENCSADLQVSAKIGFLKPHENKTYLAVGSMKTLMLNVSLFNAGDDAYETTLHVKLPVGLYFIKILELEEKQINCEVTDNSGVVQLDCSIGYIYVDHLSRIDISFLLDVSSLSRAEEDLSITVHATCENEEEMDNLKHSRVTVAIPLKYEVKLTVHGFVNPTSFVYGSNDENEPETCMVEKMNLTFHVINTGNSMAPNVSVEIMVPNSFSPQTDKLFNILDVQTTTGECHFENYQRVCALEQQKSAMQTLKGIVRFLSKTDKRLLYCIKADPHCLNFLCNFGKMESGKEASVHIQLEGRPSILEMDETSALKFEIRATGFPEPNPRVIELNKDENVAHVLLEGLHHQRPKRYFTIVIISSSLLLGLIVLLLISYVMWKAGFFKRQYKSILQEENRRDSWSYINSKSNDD
T2 sequence (P26010 20-798): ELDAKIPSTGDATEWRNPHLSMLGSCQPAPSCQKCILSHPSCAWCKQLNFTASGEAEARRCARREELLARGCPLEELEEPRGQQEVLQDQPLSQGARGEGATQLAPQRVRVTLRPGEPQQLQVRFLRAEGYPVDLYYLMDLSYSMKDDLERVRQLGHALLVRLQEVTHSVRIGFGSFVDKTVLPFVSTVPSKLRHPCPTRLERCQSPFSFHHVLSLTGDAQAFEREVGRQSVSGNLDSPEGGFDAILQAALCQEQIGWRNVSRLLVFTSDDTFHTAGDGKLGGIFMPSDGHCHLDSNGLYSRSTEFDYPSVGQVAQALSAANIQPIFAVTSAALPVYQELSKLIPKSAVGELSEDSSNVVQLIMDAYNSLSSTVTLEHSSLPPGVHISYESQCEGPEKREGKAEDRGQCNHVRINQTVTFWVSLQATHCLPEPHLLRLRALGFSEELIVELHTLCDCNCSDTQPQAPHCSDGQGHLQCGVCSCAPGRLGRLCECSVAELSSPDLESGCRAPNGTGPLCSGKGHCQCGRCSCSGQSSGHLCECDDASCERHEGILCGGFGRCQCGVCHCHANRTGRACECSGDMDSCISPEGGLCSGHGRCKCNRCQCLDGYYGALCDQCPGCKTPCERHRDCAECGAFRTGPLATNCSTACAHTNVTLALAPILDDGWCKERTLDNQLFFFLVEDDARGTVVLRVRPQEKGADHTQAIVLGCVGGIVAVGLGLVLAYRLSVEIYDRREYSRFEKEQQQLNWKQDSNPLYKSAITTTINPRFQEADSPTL
Briefly: LPAM-1/VCAM-1 adhesion inhibition test. It is filed as cell-based.

Structures are written as SMILES.

T1 sequence (P05556 21-798, one chain of several): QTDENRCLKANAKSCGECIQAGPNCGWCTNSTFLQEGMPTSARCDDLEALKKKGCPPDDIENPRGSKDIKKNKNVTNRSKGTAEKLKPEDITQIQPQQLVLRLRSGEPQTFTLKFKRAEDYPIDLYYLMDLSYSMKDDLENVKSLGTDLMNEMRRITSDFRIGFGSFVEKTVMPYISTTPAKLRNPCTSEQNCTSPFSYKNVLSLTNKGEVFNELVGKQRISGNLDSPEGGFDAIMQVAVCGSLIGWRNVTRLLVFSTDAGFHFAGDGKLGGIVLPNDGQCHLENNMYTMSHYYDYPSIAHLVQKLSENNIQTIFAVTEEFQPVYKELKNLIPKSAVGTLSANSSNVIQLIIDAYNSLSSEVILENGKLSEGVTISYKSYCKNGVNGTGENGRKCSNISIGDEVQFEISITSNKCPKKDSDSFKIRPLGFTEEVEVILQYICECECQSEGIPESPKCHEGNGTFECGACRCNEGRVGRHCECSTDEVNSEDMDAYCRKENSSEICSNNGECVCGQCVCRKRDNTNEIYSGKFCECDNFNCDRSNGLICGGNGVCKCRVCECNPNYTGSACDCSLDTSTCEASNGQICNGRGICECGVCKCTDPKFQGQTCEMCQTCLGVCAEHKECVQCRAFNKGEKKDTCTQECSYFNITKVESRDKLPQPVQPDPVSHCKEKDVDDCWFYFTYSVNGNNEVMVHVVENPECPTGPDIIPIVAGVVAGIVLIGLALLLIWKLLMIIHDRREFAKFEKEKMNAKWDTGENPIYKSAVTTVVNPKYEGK

Turning to `CCOc1ccc(C(Cc2ccc(NC(=O)c3c(Cl)cccc3Cl)nc2)C(=O)O)cc1N(CC(C)C)C(=O)C(CC)CC` (centres unmarked) [Example 7], the IC50 at VLA-4/VCAM-1 was 7.3 nM.

For `CCOc1ccc(C(Cc2ccc(NC(=O)c3c(Cl)cccc3Cl)nc2)C(=O)O)cc1N(CC(C)C)C(=O)C(C)C` (centres unmarked) [Example 5], on VLA-4/VCAM-1, the IC50 amounted to 48 nM.

As to `CCOc1ccc(C(Cc2ccc(NC(=O)c3c(Cl)cccc3Cl)nc2)C(=O)O)cc1N(CC(C)C)C(=O)C(C)(C)C` (centres unmarked) [Example 6], at VLA-4/VCAM-1, the IC50 is 13 nM.

In the case of `COc1ccc(C(Cc2ccc(NC(=O)c3c(Cl)cncc3Cl)nc2)C(=O)O)cc1N(CC(C)C)C(=O)C(C)(C)C` (centres unmarked) [Example 9], at VLA-4/VCAM-1, the IC50 amounted to 2.8 nM. The adhesion inhibition activity entry at LPAM-1/VCAM-1 is on record as “adhesion inhibition activity was found”.

For `COc1ccc(C(Cc2ccc(NC(=O)c3c(Cl)cccc3Cl)nc2)C(=O)O)cc1N(CC(C)C)C(=O)C(C)C` (centres unmarked) [Example 2], the IC50 at VLA-4/VCAM-1 worked out at 12 nM.

On to `COc1ccc(C(Cc2ccc(NC(=O)c3c(Cl)cccc3Cl)nc2)C(=O)O)cc1N(CC(C)C)C(=O)C(C)(C)C` (centres unmarked) [Example 1, 3-[2-(2,6-dichlorobenzoylamino)pyrid-5-yl]-2-{3-[(2,2-dimethylpropionyl)isobutylamino]-4-methoxyphenyl}propionic acid], for which, on VLA-4/VCAM-1, the IC50 stood at 3 nM. Also, on LPAM-1/VCAM-1, the adhesion inhibition activity result is given as “adhesion inhibition activity was found”.

With `CCC(CC)C(=O)N(CC(C)C)c1cc(C(Cc2ccc(NC(=O)c3c(Cl)cccc3Cl)nc2)C(=O)O)ccc1OC` (centres unmarked) [Example 3], the IC50 at VLA-4/VCAM-1 came out at 33 nM.

On to `CCOc1ccc(C(Cc2ccc(NC(=O)c3c(Cl)cncc3Cl)nc2)C(=O)O)cc1N(CC(C)C)C(=O)C(C)(C)C` (centres unmarked) [Example 10], for which the IC50 on VLA-4/VCAM-1 was determined as 1.2 nM. For the same molecule, on LPAM-1/VCAM-1, the adhesion inhibition activity entry is reported as “adhesion inhibition activity was found”.
